{
  "source": "patent US5057494A",
  "about": "“Method for preventing tissue damage after an ischemic episode” (Ethicon, Inc., priority 1988, dated 1991)",
  "key": {"gerbils": {"tested_on": "gerbils", "test": "Spontaneous locomotor activity after 5-min bilateral carotid occlusion (photocell activity chambers)", "format": "in vivo, gerbil", "conditions": "for Motor Activity at 24 hours: Example 2, saline 3028; for Spontaneous locomotor activity: Table 1, mean of 6 gerbils", "from_the_text": "(§1) The present example is based on a surgical procedure that has been developed to study the effects of cerebral or brain ischemia in the unanesthetized gerbil. The methodology is based upon the surgical isolation and instrumentation of both common carotid arteries. A loop of dental floss is placed around each carotid artery and passed through a double lumen catheter material; this allows for later occlusion of the carotid arteries and their release in the unanesthetized subject. […] Behavioral changes consequent to stroke are useful and pertinent as a means of evaluation in this model of nonlethal transient ischemia Emotional lability, depression, agitation and motor and cognitive deficits are common after stroke. The psychomotor depression noted immediately after transient ischemia in this gerbil model mimics the clinical situation in humans. Spontaneous motor activity is an indicator of aroused state and is a behavior commonly measured in psychopharmacology research. Changes in locomotor activity have been shown in extensive pharmacological and toxicology studies to provide reliable, reproducible first-assessment data about neurological status. The details of this method are more fully set forth in Chandler, M.J. et al., J. Pharm. Meth. 14:137-146 (1985).\n(§2) Ligatures externalized through double lumen catheters were surgically placed around both common carotid arteries of mature (50-60 gram) gerbils. After allowing recovery from surgery, conscious gerbils were subjected to a 5 minute period of bilateral carotid occlusion by tightening the ligatures. Spontaneous motor activity was then periodically monitered over seven days followed by animal sacrifice and blinded histological evaluation of brain sections. EGF (0.1 and 1.0 mg/kg) and FGF (0.1, 1.0 and 10.0 mg/kg) were given intraperitoneally in saline at one hour pre-occlusion and one, three, five and seven hours post-occlusion. Two control groups (occluded and non-occluded) received saline by the same route.\nSpontaneous locomotor activity was recorded using photocell activity chambers. The chambers were two-foot circular arenas that were individually housed in sound attenuating compartments ventilated by a fan. Activity was monitored by two orthogonally placed photocell circuits. A single break of the photocell light beam by the animal's movements defined an activity count counts were monitored and recorded as a function of time. The data in Tables 1 and 2 represent activity counts.\n(§3) Gerbils were treated as in Example 1, except that dosing was at 1,3,5 and 7 hours post-occlusion only."}, "[1]": {"tested_on": "hippocampal pyramidal cell layer", "test": "Blinded histological evaluation of brain sections after 5-min bilateral carotid occlusion", "format": "in vivo, gerbil", "conditions": "for Protection of the animal's neurons (in words): as monitored by motor activity or histology; for Average Histopathology Score: Example 2, saline 4.8, scale 0-5 of Table 4", "from_the_text": "as §1, §2, §3"}, "[2]": {"conditions": "0.01 mg/kg i.p. at 1,3,5,7 h post-occlusion only"}, "[3]": {"conditions": "0.1 mg/kg i.p. at 1,3,5,7 h post-occlusion only"}, "[4]": {"conditions": "1 mg/kg i.p. at 1,3,5,7 h post-occlusion only"}},
  "data": [
    {"substance": "EGF: epidermal growth factor; polypeptide growth factor (human EGF is fifty-three amino acids); source of tested material not stated", "values": [
      {"measurement": "Motor Activity at 24 hours", "setting": "gerbils; [2]", "value": 1891},
      {"measurement": "Motor Activity at 24 hours", "setting": "gerbils; [3]", "value": 1051},
      {"measurement": "Motor Activity at 24 hours", "setting": "gerbils; [4]", "value": 715},
      {"measurement": "Spontaneous locomotor activity", "setting": "gerbils; 0.1 mg/kg i.p. at 1 h pre- and 1,3,5,7 h post-occlusion, 6 h after ischemia, saline post-ischemic 2366, non-ischemic 485", "value": 1511, "unit": "activity counts"},
      {"measurement": "Spontaneous locomotor activity", "setting": "gerbils; 0.1 mg/kg i.p. at 1 h pre- and 1,3,5,7 h post-occlusion, 24 h after ischemia, saline post-ischemic 1960, non-ischemic 529", "value": 658, "unit": "activity counts"},
      {"measurement": "Spontaneous locomotor activity", "setting": "gerbils; 0.1 mg/kg i.p. at 1 h pre- and 1,3,5,7 h post-occlusion, 48 h after ischemia, saline post-ischemic 2145, non-ischemic 613", "value": 687, "unit": "activity counts"},
      {"measurement": "Spontaneous locomotor activity", "setting": "gerbils; 0.1 mg/kg i.p. at 1 h pre- and 1,3,5,7 h post-occlusion, 72 h after ischemia, saline post-ischemic 1011, non-ischemic 579", "value": 715, "unit": "activity counts"},
      {"measurement": "Spontaneous locomotor activity", "setting": "gerbils; 0.1 mg/kg i.p. at 1 h pre- and 1,3,5,7 h post-occlusion, 96 h after ischemia, saline post-ischemic 895, non-ischemic 493", "value": 626, "unit": "activity counts"},
      {"measurement": "Spontaneous locomotor activity", "setting": "gerbils; 0.1 mg/kg i.p. at 1 h pre- and 1,3,5,7 h post-occlusion, 120 h after ischemia, saline post-ischemic 486, non-ischemic 463", "value": 511, "unit": "activity counts"},
      {"measurement": "Spontaneous locomotor activity", "setting": "gerbils; 1.0 mg/kg i.p. at 1 h pre- and 1,3,5,7 h post-occlusion, 6 h after ischemia, saline post-ischemic 2366, non-ischemic 485", "value": 705, "unit": "activity counts"},
      {"measurement": "Spontaneous locomotor activity", "setting": "gerbils; 1.0 mg/kg i.p. at 1 h pre- and 1,3,5,7 h post-occlusion, 24 h after ischemia, saline post-ischemic 1960, non-ischemic 529", "value": 766, "unit": "activity counts"},
      {"measurement": "Spontaneous locomotor activity", "setting": "gerbils; 1.0 mg/kg i.p. at 1 h pre- and 1,3,5,7 h post-occlusion, 48 h after ischemia, saline post-ischemic 2145, non-ischemic 613", "value": 588, "unit": "activity counts"},
      {"measurement": "Spontaneous locomotor activity", "setting": "gerbils; 1.0 mg/kg i.p. at 1 h pre- and 1,3,5,7 h post-occlusion, 72 h after ischemia, saline post-ischemic 1011, non-ischemic 579", "value": 463, "unit": "activity counts"},
      {"measurement": "Spontaneous locomotor activity", "setting": "gerbils; 1.0 mg/kg i.p. at 1 h pre- and 1,3,5,7 h post-occlusion, 96 h after ischemia, saline post-ischemic 895, non-ischemic 493", "value": 445, "unit": "activity counts"},
      {"measurement": "Spontaneous locomotor activity", "setting": "gerbils; 1.0 mg/kg i.p. at 1 h pre- and 1,3,5,7 h post-occlusion, 120 h after ischemia, saline post-ischemic 486, non-ischemic 463", "value": 314, "unit": "activity counts"},
      {"measurement": "Protection of the animal's neurons (in words)", "setting": "[1]; 0.1 mg/kg i.p. pre- and post-occlusion", "value": "modest protection"},
      {"measurement": "Protection of the animal's neurons (in words)", "setting": "[1]; 1 mg/kg i.p. pre- and post-occlusion", "value": "almost total protection"},
      {"measurement": "Average Histopathology Score", "setting": "[1]; [2]", "value": 4.7},
      {"measurement": "Average Histopathology Score", "setting": "[1]; [3]", "value": 1.5},
      {"measurement": "Average Histopathology Score", "setting": "[1]; [4]", "value": 2.2}
    ]}
  ]
}
